In ChEMBL document CHEMBL1201862, “PubChem BioAssay data set” (2004):
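Test compounds were applied to cells in 96-well plates for 48 hours at 5 doses. At the GI50, growth is halved.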 Activity calls are given as the source filed them. Cut-off read from the data, not from the text of the source: active = GI50 up to about 1.1 µM and inactive = higher.

Tests used:
Assay in all cases: NCI-60 cell line screen, 48 h
786-0 = tested on: 786-0
A498 = tested on: A498
A549 = tested on: A549
ACHN = tested on: ACHN
CAKI-1 = tested on: CAKI-1
CCRF-CEM = tested on: CCRF-CEM
COLO 205 = tested on: COLO 205
DLD-1 = tested on: DLD-1
DMS-114 = tested on: DMS-114
DMS-273 = tested on: DMS-273
EKVX = tested on: EKVX
HCC 2998 = tested on: HCC 2998
HCT-116 = tested on: HCT-116
HCT-15 = tested on: HCT-15
HL-60 = tested on: HL-60
HOP-18 = tested on: HOP-18
HOP-62 = tested on: HOP-62
HOP-92 = tested on: HOP-92
HT-29 = tested on: HT-29
IGROV-1 = tested on: IGROV-1
K562 = tested on: K562
KM-20L2 = tested on: KM-20L2
KM12 = tested on: KM12
LOX IMVI = tested on: LOX IMVI
LXFL 529 = tested on: LXFL 529
M14 = tested on: M14
M19-MEL = tested on: M19-MEL
MOLT-4 = tested on: MOLT-4
Malme-3M = tested on: Malme-3M
NCI-H226 = tested on: NCI-H226
NCI-H23 = tested on: NCI-H23
NCI-H460 = tested on: NCI-H460
NCI-H522 = tested on: NCI-H522
OVCAR-3 = tested on: OVCAR-3
OVCAR-4 = tested on: OVCAR-4
OVCAR-5 = tested on: OVCAR-5
OVCAR-8 = tested on: OVCAR-8
RPMI-8226 = tested on: RPMI-8226
RXF 393 = tested on: RXF 393
RXF 631 = tested on: RXF 631
SF-268 = tested on: SF-268
SF-295 = tested on: SF-295
SF-539 = tested on: SF-539
SK-MEL-28 = tested on: SK-MEL-28
SK-MEL-2 = tested on: SK-MEL-2
SK-MEL-5 = tested on: SK-MEL-5
SK-OV-3 = tested on: SK-OV-3
SN12C = tested on: SN12C
SNB-19 = tested on: SNB-19
SNB-75 = tested on: SNB-75
SNB-78 = tested on: SNB-78
SW-620 = tested on: SW-620
TK-10 = tested on: TK-10
U-251 = tested on: U-251
UACC-257 = tested on: UACC-257
UACC-62 = tested on: UACC-62
UO-31 = tested on: UO-31
XF498 = tested on: XF498

CC(C)(C)OC(=O)NC(Cc1ccccc1)C(=S)N1CCCC1 (stereo not given)
GI50 (786-0): > 100 µM (inactive)
GI50 (A498): > 100 µM (inactive)
GI50 (A549): > 100 µM (inactive)
GI50 (ACHN): > 100 µM (inactive)
GI50 (CAKI-1): > 50.9 µM (inactive)
GI50 (CCRF-CEM): 69.2 µM (inactive)
GI50 (COLO 205): > 100 µM (inactive)
GI50 (DLD-1): 62.4 µM (inactive)
GI50 (DMS-114): 65.5 µM (inactive)
GI50 (DMS-273): > 79.3 µM (inactive)
GI50 (EKVX): 52.6 µM (inactive)
GI50 (HCC 2998): > 100 µM (inactive)
GI50 (HCT-116): > 100 µM (inactive)
GI50 (HCT-15): 75.5 µM
GI50 (HL-60): 89.5 µM (inactive)
GI50 (HOP-18): > 100 µM (inactive)
GI50 (HOP-62): 25.8 µM (inactive)
GI50 (HOP-92): 31.7 µM (inactive)
GI50 (HT-29): 85.7 µM (inactive)
GI50 (IGROV-1): > 100 µM (inactive)
GI50 (K562): 78.3 µM (inactive)
GI50 (KM-20L2): > 100 µM (inactive)
GI50 (KM12): > 100 µM (inactive)
GI50 (LOX IMVI): > 87.9 µM (inactive)
GI50 (LXFL 529): > 90.4 µM (inactive)
GI50 (M14): > 100 µM (inactive)
GI50 (M19-MEL): > 100 µM (inactive)
GI50 (MOLT-4): 42.6 µM (inactive)
GI50 (Malme-3M): > 100 µM (inactive)
GI50 (NCI-H226): > 100 µM (inactive)
GI50 (NCI-H23): 48.8 µM (inactive)
GI50 (NCI-H460): > 93.8 µM (inactive)
GI50 (NCI-H522): 25 µM (inactive)
GI50 (OVCAR-3): > 100 µM (inactive)
GI50 (OVCAR-4): 86.3 µM (inactive)
GI50 (OVCAR-5): > 100 µM (inactive)
GI50 (OVCAR-8): > 100 µM (inactive)
GI50 (RPMI-8226): 31.1 µM (inactive)
GI50 (RXF 393): 58.9 µM (inactive)
GI50 (RXF 631): > 100 µM (inactive)
GI50 (SF-268): > 100 µM (inactive)
GI50 (SF-295): 95.3 µM (inactive)
GI50 (SF-539): > 100 µM (inactive)
GI50 (SK-MEL-28): > 100 µM (inactive)
GI50 (SK-MEL-2): > 100 µM (inactive)
GI50 (SK-MEL-5): 57 µM (inactive)
GI50 (SK-OV-3): > 100 µM (inactive)
GI50 (SN12C): > 100 µM (inactive)
GI50 (SNB-19): > 100 µM (inactive)
GI50 (SNB-75): 55.5 µM (inactive)
GI50 (SNB-78): > 100 µM (inactive)
GI50 (SW-620): > 100 µM (inactive)
GI50 (TK-10): > 100 µM (inactive)
GI50 (U-251): > 100 µM (inactive)
GI50 (UACC-257): 89.1 µM (inactive)
GI50 (UACC-62): > 80.4 µM (inactive)
GI50 (UO-31): 40.4 µM (inactive)
GI50 (XF498): > 100 µM (inactive)

CCCCCCCCCCCCCC/C(C(=O)OC)=C(/O)C(=O)OCC
GI50 (786-0): 19.7 µM (inactive)
GI50 (A498): 33.2 µM (inactive)
GI50 (A549): 26.4 µM (inactive)
GI50 (ACHN): 28.9 µM (inactive)
GI50 (CAKI-1): 31.4 µM (inactive)
GI50 (CCRF-CEM): 42.5 µM (inactive)
GI50 (COLO 205): 90.8 µM (inactive)
GI50 (DLD-1): 30.5 µM (inactive)
GI50 (DMS-114): > 100 µM (inactive)
GI50 (DMS-273): 94 µM (inactive)
GI50 (EKVX): 37.2 µM (inactive)
GI50 (HCC 2998): 19.9 µM (inactive)
GI50 (HCT-116): 47.6 µM (inactive)
GI50 (HCT-15): 19.7 µM
GI50 (HL-60): > 100 µM (inactive)
GI50 (HOP-18): 27.6 µM (inactive)
GI50 (HOP-62): 61.2 µM (inactive)
GI50 (HOP-92): 25.5 µM (inactive)
GI50 (HT-29): 36.4 µM (inactive)
GI50 (IGROV-1): 30 µM (inactive)
GI50 (K562): 27 µM (inactive)
GI50 (KM12): 19.9 µM (inactive)
GI50 (LOX IMVI): 17.8 µM (inactive)
GI50 (LXFL 529): 39.3 µM (inactive)
GI50 (M14): 20.2 µM (inactive)
GI50 (M19-MEL): 54.8 µM (inactive)
GI50 (MOLT-4): 37.6 µM (inactive)
GI50 (Malme-3M): > 100 µM (inactive)
GI50 (NCI-H226): > 100 µM (inactive)
GI50 (NCI-H23): > 100 µM (inactive)
GI50 (NCI-H460): 37.8 µM (inactive)
GI50 (NCI-H522): 43.3 µM (inactive)
GI50 (OVCAR-3): > 100 µM (inactive)
GI50 (OVCAR-4): 58.9 µM (inactive)
GI50 (OVCAR-5): 27 µM (inactive)
GI50 (OVCAR-8): 44.8 µM (inactive)
GI50 (RPMI-8226): > 100 µM (inactive)
GI50 (RXF 393): 99.5 µM (inactive)
GI50 (RXF 631): 33 µM (inactive)
GI50 (SF-268): 25.8 µM (inactive)
GI50 (SF-295): 20.6 µM (inactive)
GI50 (SF-539): > 100 µM (inactive)
GI50 (SK-MEL-28): 24 µM (inactive)
GI50 (SK-MEL-2): 16.6 µM (inactive)
GI50 (SK-MEL-5): > 100 µM (inactive)
GI50 (SK-OV-3): 35.3 µM (inactive)
GI50 (SN12C): > 100 µM (inactive)
GI50 (SNB-19): 40.9 µM (inactive)
GI50 (SNB-75): 33 µM (inactive)
GI50 (SNB-78): 64.1 µM (inactive)
GI50 (SW-620): > 100 µM (inactive)
GI50 (TK-10): 47.3 µM (inactive)
GI50 (U-251): 26.3 µM (inactive)
GI50 (UACC-257): 63.5 µM (inactive)
GI50 (UACC-62): 16.9 µM (inactive)
GI50 (UO-31): 23.6 µM (inactive)
GI50 (XF498): 20.4 µM (inactive)
